Assay results from patent US10787640B2, “Producing mesodermal cell types and methods of using the same” (The Board of Trustees of the Leland Stanford Junior …, priority 2015, dated 2020).

B1: IL6RA: soluble IL6 receptor ectodomain (protein)
chain: LAPRRCPAQEVARGVLTSLPGDSVTLTCPGVEPEDNATVHWVLRKPAAGSHPSRWAGMGRRLLLRSVQLHDSGNYSCYRAGRPAGTVHLLVDVPPEEPQLSCFRKSPLSNVVCEWGPRSTPSLTTKAVLLVRKFQNSPAEDFQEPCQYSQESQKFSCQLAVPEGDSSFYIVSMCVASSVGSKFSKTQTFQGCGILQPDPPANITVTAVARNPRWLSVTWQDPHSWNSSFYRLRFELRYRAERSKTFTTWMVKDLQHHCVIHDAWSGLRHVVQLRAQEEFGQGEWSEWSPEAMGTPWTESRSPPAENEVSTPMQALTTNKDDDNILFRDSANATSLPVQDSSSVPLP

Experiments:
Assay type in all cases: cell-based, human
[1] = test system: day 5 hematopoietic intermediates; assay: Day 5-7 continued differentiation of hematopoietic intermediates, factor withholding; conditions: for GFI1B expression: individually withholding the factor from the 8 factors, 48 hours
Procedure: SOX17^mCherry/+ H9 hESCs (referred to as SOX17-mCherry hESCs throughout this study) were routinely propagated in mTeSR1 (StemCell Technologies)+1% penicillin/streptomycin. They were passaged ˜1:12-1:25 as fine clumps using Accutase (Gibco) onto plates precoated with a Geltrex substratum (Gibco) in mTeSR1 medium supplemented with thiazovivin ([…]; a ROCK inhibitor). After overnight plating, hESCs were washed (DMEM/F12) and differentiated towards posterior PS using BMP4 (15-40 ng/mL, R&D Systems), CHIR99021 ([…]), FGF2 (20 ng/mL, Invitrogen) and PIK90 (100 nM, Calbiochem) for 24 hours, with the optional inclusion of Activin (30 ng/mL, R&D Systems) to induce mid PS. Day 1 mid or posterior PS was subsequently washed (DMEM/F12) and further differentiated using BMP4 (40 ng/mL), GDC-0941 (0.25-2.5 μM, Cellagen Technology), Forskolin (10 μM, Tocris), SB-505124 ([…]), VEGF (100 ng/mL, R&D Systems), XAV939 (1 μM, Tocris) and ascorbic acid-2-phosphate (200 μg/mL, Sigma) for 24 hours. Day 2 cultures were further directed into the definitive hematopoietic lineage/hemogenic precursors by Activin A (15 ng/mL), GDC-0941 (0.25-2.5 μM), VEGF (100 ng/mL), XAV939 (1 μM) and ascorbic acid-2-phosphate (200 μg/mL) for 24 hours. Day 3 definitive hematopoietic progenitors were subsequently differentiated into early Runx1^lowGfi1^low hemogenic intermediates through day 4-5 treatment with BMP4 (50 ng/mL), TTNPB (500 nM), VEGF (100 ng/mL) and XAV939 (1 μM) for 48 hours, supplemented with SB-505124 (2 μM) on day 5. Day 5 populations were then dissociated into single cells, counted and reaggregated in individual wells of a low-adhesion V-bottom or U-bottom 96-well plate (e.g., Thermo Fisher, catalog no. 249952) with ˜15,000-20,000 cells seeded per well. Aggregates were cultured for 48 additional hours until day 7 in BMP4 (50 ng/mL), TTNPB (500 nM), VEGF (100 ng/mL), XAV939 (1 μM), SB-505124 (2 μM), SCF (25-50 ng/mL, R&D Systems), IL6 (10 ng/mL, R&D Systems) and IL6RA (250-1000 ng/mL, R&D Systems). All differentiation was conducted in serum-free CDM2 fully-defined basal media.

[2] = test system: hESC-derived cardiac mesoderm; assay: Cardiac mesoderm differentiation into cardiovascular fates, qPCR; conditions: BMP4 30 ng/mL+XAV939 1 μM with FGF2 or FGF receptor antagonists at 100 nM, 48 hours
Procedure: Day 2 lateral mesoderm was differentiated into day 4 cardiac mesoderm by treating them with 1 μM A8301+30 ng/mL BMP4+1 μM C59+20 ng/mL FGF2 for 48 hrs, or alternatively, with 1 μM A8301+30 ng/mL BMP4+20 ng/mL FGF2 for 24 hrs followed by 25 ng/mL Activin+30 ng/mL BMP4+1 μM C59 for the next 24 hrs (schema in FIG. 5E; positive effect of mid-stage Activin shown in FIG. 12K). Subsequently, day 4 cardiac mesoderm was briefly washed (DMEM/F12) and treated with 30 ng/mL BMP4+1 μM XAV939+200 μg/mL 2-phospho-ascorbic acid (Sigma) for 48-96 hrs to yield day 6-8 cardiomyocyte-containing populations. Spontaneously contracting cardiomyocyte foci were evident from day 8 onwards.
C) To reveal the possible identity of non-cardiac mesoderm lineages that were contaminating cardiac mesoderm-containing cultures, NKX2.5-GFP hESCs were differentiated towards mid primitive streak (day 1) and were differentiated towards a heterogeneous population containing cardiac mesoderm (day 3) by treatment with SB-505124+BMP4+C59 (without FGF2) on days 2-3 of differentiation. FACS was performed on day 3 to purify either NKX2.5-GFP^+ or NKX2.5-GFP^− cells (top subpanels) which were sorted for qPCR (bottom subpanels). Gene expression was normalized to expression of a gene in the NKX2.5-GFP^+ fraction (dotted line). D) Timecourse of gene expression in hESCs differentiating towards mid primitive streak and lateral mesoderm, with treatment by SB-505124+BMP4+C59 on days 2-3 of differentiation. […] G) To assess whether a stabilized vitamin C analog (ascorbic acid-2-phosphate) (AA2P) enhanced cardiac mesoderm differentiation into cardiomyocytes, day 4 hESC-derived cardiac mesoderm was exposed to BMP4 (30 ng/mL)+XAV939 (1 μM) for 48 hours in the presence or absence of 200 μg/mL AA2P and qPCR was conducted of day 6 populations; qPCR data were normalized such that expression values in the highest-expressing sample was normalized=1.0. […] J) In the mouse embryo, endocardium (progenitors to heart-affiliated endothelium) are marked by transient coexpression of pan-heart marker Nkx2.5 together with endothelial markers (Ferdous et al., 2009; Stanley et al., 2002).

[3] = test system: day 3 early somite progenitors; assay: Patterning of early somite progenitors into sclerotome or dermomyotome
Procedure: Day 2 paraxial mesoderm was briefly washed (DMEM/F12) and further differentiated into day 3 early somite/somitomere precursors for 24 hours (1 μM A-83-01+250 nM LDN-193189+1 μM C59+500 nM PD0325901). Subsequently, day 3 early somites were dorsoventrally patterned into either ventral somites/sclerotome (5 nM 21K+1 μM C59) or dorsal somites/dermomyotome (3 μM CHIR99021+150 nM Vismodegib). Sclerotome induction was conducted for 48-72 hours (leading to day 5-6 ventral somite progenitors). […] Media was changed 24 hours for all steps. The Hedgehog agonist 21K, which has been previously described in, e.g., Brunton et al., 2009 the disclosure of which is incorporated herein by reference in its entirety, was commercially synthesized.
Day 3 early somites were briefly washed (DMEM/F12), treated with BMP4+CHIR99021+Vismodegib for 24 hours, washed again (DMEM/F12) and subsequently treated with CHIR99021 (3 μM)+21K (5 nM) for 24 hours. This day 5 dermomyotome was further empirically differentiated towards skeletal muscle-like progeny (using medium containing 2% horse serum, which has been previously described in, e.g., Xu et al. 2013, the disclosure of which is incorporated herein by reference in its entirety) for 12 days, yielding day 17 skeletal muscle-containing populations.
FIG. 11: A) To determine the length of time required for sclerotome differentiation, a qPCR timecourse was performed, encompassing undifferentiated hESCs (D0), day 2 hESC-derived paraxial mesoderm (D2 PXM), day 3 hESC-derived early somite progenitors, and hESC-derived day 3 early somite progenitors that were exposed to sclerotome inductive conditions (5 nM 21K+1 μM C59) for 24 or 48 hours. B) Description of EF1α-BCL2-T2A-GFP lentiviral construct (otherwise known as “C306”; top) and FACS plot of a stably-transduced polyclonal H9 hESC line with near-uniform expression of the BCL2-T2A-GFP transgene (green contour) by comparison to uncolored wild-type hESCs (bottom) (see above methods for details of derivation of the H9 BCL2-T2A-GFP hESC line). C) Higher-magnification picture of BCL2-T2A-GFP hESC-derived sclerotome ectopic bone grafts (originally described above in FIG. 4, panel E), showing that despite the near-ubiquitous expression of GFP throughout the ectopic bone graft (indicating its human provenance), the blood vessels are clearly GFP-negative and therefore presumably derived from the mouse host; scale bar=1 mm. […] L) Description of EF1a-BCL2-T2A-GFP lentiviral construct (otherwise known as “C306”; top) and FACS plot of a stably-transduced polyclonal H9 hESC line with near-uniform expression of the BCL2-T2A-GFP transgene (green contour) by comparison to uncolored wild-type hESCs (bottom) (see the methods described herein for details of derivation of the H9 BCL2-T2A-GFP hESC line). M) Description of UBC-Luciferase-T2A-tdTomato lentiviral construct (top); bioluminescent assay of cultured H9 UBC-Luciferase-T2A-tdTomato hESCs validates that these cells are luciferase-expressing in vitro (bottom).

| Molecule | GFI1B expression [1] | cardiovascular fate promoted [2] | further results |
| --- | --- | --- | --- |
| VEGF | did not markedly impair GFI1B expression |  | vein marker NR2F2 expression ([1]; withholding the factor): increased expression of the vein marker NR2F2 |
| IL6: IL6 ligand | strongly diminished |  |  |
| CCN1CCN(c2ccc(Nc3cc(N(C)C(=O)Nc4c(Cl)c(OC)cc(OC)c4Cl)ncn3)cc2)CC1 [BGJ398] |  | promoted (pro)epicardium |  |
| SCF: SCF protein signaling through the KIT receptor | strongly diminished |  |  |
| CN[C@H]1CC[C@H](N(Cc2ccc(OC)c(-c3ccncc3)c2)C(=O)c2sc3c(F)ccc(F)c3c2Cl)CC1 [21K, 3-chloro-4,7-difluoro-N-(4-methoxy-3-(pyridin-4-yl)benzyl)-N-((1r,4r)-4-(methylamino)cyclohexyl)benzo[b]thiophene-2-carboxamide] |  |  | sclerotome fate induction ([3]; 21K with C59, 2-3 days): efficiently induced the sclerotome fate; EN1 induction ([3]; later stage CHIR99021+21K 5 nM, 24-48 hours): important to induce EN1 |
| CCN(CC)CCCCNc1ncc2cc(-c3cc(OC)cc(OC)c3)c(NC(=O)NC(C)(C)C)nc2n1 [PD173074, N-[2-[[4-(Diethylamino)butyl]amino]-6-(3,5-dimethoxyphenyl)pyrido[2,3-d]pyrimidin-7-yl]-N′-(1,1-dimethylethyl)urea] |  | promoted (pro)epicardium |  |
| AZD4547 |  | promoted (pro)epicardium |  |
| FGF2: FGF agonist, FGF family ligand |  | promoted endocardium |  |
| CS(=O)(=O)c1ccc(C(=O)Nc2ccc(Cl)c(-c3ccccn3)c2)c(Cl)c1 [Vismodegib] |  |  | dorsal somite marker PAX3 and sclerotome fate ([3]; CHIR together with Vismodegib): sustained dorsal somite marker PAX3 while inhibiting the sclerotome fate |
| B1 | strongly diminished |  |  |
